A word on the AC50: it is the midpoint of the concentration-response curve, whichever way the signal moves.

Among the data in PubChem BioAssay AID743267 (Broad Institute, 2014) are AC50 values, retold here.

In the first assay the test system is human bronchial epithelial cells, CFTR corrector, plate reader. Kind of assay: CFTR ΔF508 corrector activity in bronchial cells, dose response, human bronchial epithelial cells, plate reader, cherry-pick, two tests (AID 743267). The following applies: measured here: test 1 replicate run.
`C[C@@H]1CN([C@H](C)CO)S(=O)(=O)c2ccc(-c3ccc(C#N)cc3)cc2O[C@H]1CN(C)Cc1ccccn1` registered an AC50 of 16 µM. This counts as double-digit micromolar.
The same measure, in the same setting: next, `Cc1ccc(-c2ccc3c(c2)O[C@H](CN(C)Cc2ccccn2)[C@@H](C)CN([C@@H](C)CO)S3(=O)=O)cc1`: 18 µM.
Still for that read-out and setting: for `CN1c2ccc(-c3ccc(F)cc3)cc2[C@H]2[C@H](CCN2S(=O)(=O)c2ccc(F)cc2)[C@H]1CO` the value was 6.55 µM.
On the same count and under the same terms, next, `C[C@H]1CCCCO[C@@H](CN(C)C(=O)C2CCCCC2)[C@@H](C)CN([C@@H](C)CO)C(=O)c2cc(NC(=O)Nc3ccc(C(F)(F)F)cc3)ccc2O1`: 15.8 µM.

Still in this assay, the particulars now being: measured here: test 2 replicate run.
Compound `COc1cc(/C=N/NC(=O)c2cc(-c3c(C)nn(-c4ccccc4)c3C)n[nH]2)ccc1O` had an AC50 of 7.78 µM.
Still for that read-out and setting: next, `CCCCn1c(CN2CCN(c3cccc(Cl)c3)CC2)nc2c1c(=O)[nH]c(=O)n2C`: 4.31 µM.
On the same count and under the same terms, next, `Clc1ccc(Nc2ccc3ccccc3n2)cc1`: 8.45 µM; `Nc1c2ccccc2nc2ccccc12`: 2.62 µM.
`COc1ccc(NS(=O)(=O)c2cc(NC(=O)Cc3c(F)cccc3Cl)ccc2OC)cc1` showed a half-maximal activity concentration (AC50) of 0.827 µM.
The compound `Nc1sc(-c2ccccc2)cc1-c1n[nH]c(=S)n1C1CCCCC1` yielded an AC50 of 2.45 µM. Against the preceding compound, the AC50 is about 3-fold higher.
Still for that read-out and setting: next, `CC[C@H]1CN2CCC1C[C@H]2[C@H](O)c1ccnc2ccc(OC)cc12` (stereo not given in full): 12.9 µM; `COc1ccccc1N=C1SC(C(=O)Nc2cccc(Cl)c2Cl)C(N)=C1C(N)=O` (stereo not given): 6.08 µM.
In the case of `O=C(N/N=C/c1ccccc1OC(F)F)c1cc(-c2ccncc2)nc2ccccc12`, the AC50 was determined as 0.798 µM.
`CCOC(=O)N1CCN(S(=O)(=O)c2ccc3c(c2)C(C)C(=O)N3)CC1` (stereo not given) returned an AC50 greater than 50 µM.
For the compound `C[C@@H](N)Cc1cnc[nH]1`, the AC50 was 20.1 µM.
The same measure, in the same setting: for `OC[C@@H]1CN(Cc2ccc(-c3ccccc3)cc2)C[C@H](n2cnc3c(NC4CC4)ncnc32)O1` the value was greater than 50 µM; for `COc1ccc(CCNc2c3ccccc3nc3ccccc23)cc1OC`, 3.9 µM.
The same measure, in the same setting: for `Cc1ccc(C2NC(=O)c3ccccc3N2)c(C)c1` (stereo not given) the value was 5.08 µM; for `CCOc1ccc(C(=O)COC(=O)Cc2n[nH]c(=O)c3ccccc23)cc1`, 2.53 µM.
Same read-out and setting: for `CC(C)(C)c1ccc(OCC(=O)Nc2ccc3c4c(cccc24)C(=O)NC3=O)cc1` the value was 18.4 µM; for `Cc1ccc(S(=O)(=O)N2CCCCC2CCNC(=O)C(=O)NCc2ccccc2)cc1` (stereo not given), 3.29 µM; for `COc1cccc2c1C(=O)c1c(O)c3c(c(O)c1C2=O)CC(O)(C(C)=O)CC3OC1CC(N(C)C)C(O)C(C)O1` (stereo not given), 14.8 µM.
`COC(=O)c1[nH]c2c(c1C)C(=O)CC(c1cccc(OC)c1)C2` (stereo not given) returned an AC50 of 0.965 µM. This AC50 is about 15-fold lower than that of the compound before.
On the same count and under the same terms, next, `Cc1cccc(N2CCN(S(=O)(=O)c3cc(-c4cc(C)no4)ccc3C)CC2C)c1` (stereo not given): 2.57 µM; `Cc1ccc2[nH]c(C(=O)N/N=C/c3ccccc3O)c(C)c2c1`: 1.31 µM.
The same measure, in the same setting: for `COc1ccc(C2c3ccc4ccccc4c3Oc3ncn(CCCO)c(=N)c32)cc1OC` (stereo not given) the value was 25.5 µM.
Still for that read-out and setting: for `O=[N+]([O-])c1ccc(Sc2cccc[n+]2[O-])c2nonc12` the value was 12.7 µM; for `O=C(NCCN1C(=O)S/C(=C\c2ccc(OC(F)F)cc2)C1=O)c1cnccn1`, 1.85 µM; for `O=C(NC(=S)Nc1ccc(-c2ccccc2)cc1)c1ccccc1`, greater than 50 µM.
`N#C/C(=C/c1ccc(N2CCCCC2)o1)C(=O)Nc1ccc2ccccc2c1` came in with an AC50 of 6.64 µM.
On the same count and under the same terms, next, `O=C(N/N=C/c1cccs1)c1cccc(NC(=O)c2ccccc2Cl)c1`: 0.985 µM; `C#C[C@]1(O)CC[C@H]2[C@@H]3CCc4cc(OC)ccc4[C@H]3CC[C@@]21C`: 2.48 µM; `COc1ccc(C(=O)NCC(c2ccco2)N2CCc3ccccc32)cc1` (stereo not given): 2.69 µM.
Still for that read-out and setting: next, `NS(=O)(=O)c1ccc(CNc2ccc3ccccc3n2)cc1`: greater than 50 µM.
Still for that read-out and setting: next, `CCOC1=C/C(=C/c2c(N)n3nc(S(=O)(=O)CC)sc3nc2=O)C=CC1=O`: 24.9 µM; `Cc1cccc(N2CCN(Cc3cn(C)nc3-c3ccccc3F)CC2)n1`: 2.43 µM; `COc1cccc(Nc2nc(-c3sc(NC(=O)c4ccccc4)nc3C)cs2)c1`: 11.6 µM.
Turning to `COc1ccc(NC(=O)c2nc(C)c(C3(C)CC(c4ccccc4)=NO3)s2)cc1` (stereo not given), the half-maximal activity concentration (AC50) is 3.49 µM.
Same read-out and setting: next, `Cc1ccc(C(=O)NC(=S)NNC(=O)c2ccccc2O)cc1`: greater than 50 µM; `CCN(CC)CCn1c2ccccc2c2nc3ccccc3nc21`: 11.3 µM.
As to `COCCOC(=O)c1[nH]c2c(c1C)C(=O)CC(c1cccs1)C2` (stereo not given), the AC50 was 4.16 µM.
On the same count and under the same terms, next, `N#CC1=C(N)OC2=C(CCc3ccccc32)C1c1ccccc1Cl` (stereo not given): 2.61 µM; `COc1cc(C2CC(=O)N(c3ccc(C)cc3)C(=O)C2)cc(OC)c1OC`: 2.37 µM.
Still for that read-out and setting: for `COC(=O)c1cc2c(=O)c3ccccc3oc2nc1/C=C/N(C)C` the value was 0.984 µM; for `CCOc1ccc(NC(=O)CN(c2ccc([N+](=O)[O-])cc2)S(=O)(=O)c2ccccc2)cc1`, 18.1 µM; for `CCOC(=O)c1oc2ccc(S(=O)(=O)n3nc(-c4ccccc4)cc3N)cc2c1C`, 6.82 µM.
Same read-out and setting: next, `Cc1nn2cc(-c3cccc(Cl)c3)cnc2c1Br`: 3.81 µM.
The compound `N#Cc1ccc(-c2cccs2)nc1SCc1cccnc1` had an AC50 of 0.519 µM.
Take `COc1ccc(S(=O)(=O)Nc2cc3c(cc2C(C)=O)OCO3)cc1`: the AC50 is 13.9 µM.
Still for that read-out and setting: next, `COc1ccc(OC)c2[nH]c(C(=O)N/N=C/c3ccccc3O)cc12`: 2.6 µM.
Compound `COCCCN=C1NN=C(c2cc(C)n(Cc3ccccc3Cl)c2C)CS1` gave a concentration at half-maximal activity (AC50) of 3.3 µM.
The compound `Nc1ccc(-c2c3ccc(=O)cc-3oc3cc(O)ccc23)cc1C(=O)O` returned an AC50 of 7.85 µM. This AC50 lies about 2.4-fold higher than the previous one.
As to `COc1cccc(/C=N/Nc2ncnc(Cl)c2N)c1O`, the AC50 amounted to 12.8 µM. Compared with the last compound, the AC50 is about 1.6-fold higher.
Still for that read-out and setting: for `COc1ccc(C2=Nn3c(nnc3-c3ccccc3F)SC2)cc1OC1CCOC1` (stereo not given) the value was 22.3 µM.
Still for that read-out and setting: next, `O=c1c2ccccc2sc2c(CO)ccc(NCCN3CCCCC3)c12`: 5.18 µM; `Cc1ccccc1-c1nc(CS(=O)(=O)CC(=O)NCc2ccccc2)c(C)o1`: greater than 50 µM.
On the same count and under the same terms, for `COc1ccc(/C=C2/CCCc3ccccc3C2=O)cc1` the value was 1.92 µM.
On to `CC1CCN(C(=O)C2COc3ccccc3O2)CC1` (stereo not given), for which the AC50 was found to be 35.1 µM.
The same measure, in the same setting: for `Cc1ccc(C)c(CSc2nc3[nH]ncc3c(=O)[nH]2)c1` the value was 2.57 µM; for `COc1ccc(-c2cc(=O)c3c(O)cc(O)cc3o2)cc1`, greater than 50 µM.
The same measure, in the same setting: next, `CC(C)(C)C1COc2ccccc2N1C(=O)c1cccc(Cl)c1` (stereo not given): 1.63 µM.
The same measure, in the same setting: next, `CCOc1ccc(Cl)cc1C1=CC(=O)C[C@H](c2ccc(OC)cc2)C1`: 1.92 µM; `Cc1cccc(Nc2nc(N)nc(-c3oc4ccccc4c3C)n2)c1`: 6.65 µM.
As for `Cc1nc(C)c(C(=O)NN=Cc2ccc(N(CCCl)CCCl)cc2)s1`, the AC50 was greater than 50 µM.
Compound `COC(=O)C1CC23C=CCN4CCC5(c6ccccc6NC15C2C)C43` (stereo not given) returned an AC50 of 4.17 µM.
The same measure, in the same setting: next, `O=C(N/N=C/c1cc(Br)cc(Cl)c1O)c1ccc2c(c1)OCO2`: 9.98 µM; `CCN(CC)CCCNc1nc2ccccc2c2nc(-c3ccncc3)nn12`: 6.34 µM; `COc1ccc(C2=Nn3c(nnc3-c3ccccc3OC)SC2)cc1OC1CCOC1` (stereo not given): 0.973 µM.
Compound `COc1cc(OC)cc(C(=O)N2CC(=O)Nc3ccccc32)c1` showed an AC50 of 2.1 µM.
The same measure, in the same setting: next, `COc1cccc(/C=N/NC(=O)C(=O)N/N=C/c2cccc(OC)c2O)c1O`: 40.1 µM; `CCN[C@H]1CN(CCCOC)S(=O)(=O)c2sc(S(N)(=O)=O)cc21`: 0.0398 µM.
Still for that read-out and setting: for `CCCOc1cc(N(CC)CC)ccc1/C=C(/C#N)c1nc2ccc(C)cc2[nH]1` the value was 6.15 µM.
On the same count and under the same terms, for `COc1cccc(-c2cc3nc(-c4ccccc4)cc(=O)n3[nH]2)c1` the value was 2.35 µM.
The compound `Nc1nc(Cl)nc2c1ncn2C1CC(O)C(CO)O1` (stereo not given) yielded an AC50 of 2.73 µM.
With `CCc1ccc(-c2nc(C(N)=O)c3[nH]c(=O)n(-c4ccccc4OC)c3n2)cc1`, the concentration at half-maximal activity (AC50) worked out at 1.33 µM.
The same measure, in the same setting: for `C=CC(C)(C)c1[nH]cnc1/C=C1\NC(=O)C(C(C)C)NC1=O` (stereo not given) the value was 40.2 µM; for `COc1ccc(C)cc1NC(=O)CNC(c1ccccc1)c1ccc(C)cc1` (stereo not given), 2.03 µM; for `COc1ccccc1Cc1c(-c2ccc(Cl)cc2)nc2ccc(Br)cn12`, 8.16 µM.
Take `O=C1/C(=C\c2cc(Cl)c(O)c(Cl)c2)SC(=S)N1Cc1ccccc1`: the AC50 is 3.15 µM.
On the same count and under the same terms, next, `Cc1cc(/C=N/n2c(COc3ccccc3C)nc3ccccc3c2=O)c(O)c([N+](=O)[O-])c1`: 5.53 µM; `O=C(NCCC1CCCCN1S(=O)(=O)c1cccs1)C(=O)Nc1ccc(F)cc1F` (stereo not given): 8.39 µM; `COC(=O)c1ccc(C(=O)NC2CCCc3c2cnn3-c2ccc(C)c(C)c2)cc1` (stereo not given): 1.02 µM.
Still for that read-out and setting: for `Cn1cccc1/C=C1\SC(=Nc2cccc(O)c2)NC1=O` the value was 13.5 µM; for `COCCCNc1nnc(Cc2ccc(Cl)cc2)c(=O)[nH]1`, 3.78 µM; for `COc1cccc2c1C(=O)c1c(O)c3c(c(O)c1C2=O)C[C@](O)(C(C)=O)C[C@H]3O[C@@H]1C[C@@H](N)[C@@H](O)[C@@H](C)O1`, 7.44 µM.
Same read-out and setting: next, `COc1ccc(C(=O)OCC(=O)N2C(C)CCCC2C)cc1S(=O)(=O)N1CCOCC1` (stereo not given): 29.6 µM.
For the compound `O=C1c2cccc3c([N+](=O)[O-])ccc(c23)C(=O)N1Cc1cccnc1`, the AC50 came to 10.2 µM.
`CC1(C(=O)NCc2cccs2)Cc2c(-c3ccc4c(c3)OCO4)ccnc2O1` (stereo not given) registered a concentration at half-maximal activity (AC50) of 2.69 µM.
Still for that read-out and setting: for `C=C1SC(Nc2c(C)cc(C)cc2C)=NC12CCCCC2` the value was 5.37 µM; for `N#CC(C#N)=C1C=C2C=C(N3CCOCC3)CCC2CC1` (stereo not given), 28.2 µM; for `Cc1ccc(S(=O)(=O)N2CCOCC2)cc1NC(=O)CSc1n[nH]c(N)n1`, greater than 50 µM.
Same read-out and setting: next, `COc1ccc(-c2nc(-c3cccc(C)c3)no2)cc1OC`: 9.13 µM; `COc1cc(/C=C2/SC(=S)N(Cc3ccccc3)C2=O)cc(Cl)c1O`: 12.1 µM; `N=C1/C(=C/c2cccn2CCOc2ccccc2)C(=O)N=C2SC=C(c3ccccc3)N12`: 10.8 µM.
Still for that read-out and setting: for `CC(=O)Nc1ccc(Nc2c3ccccc3nc3ccccc23)cc1` the value was 4.6 µM.
